From a compilation of properties of binary mixtures (doi:10.1016/j.molliq.2018.12.024)

Assay: xn = mol fraction of the nth substance listed
Conditions: 298.15 K, 100 kPa

For COS(=O)(=O)[O-].Cn1cc[n+](C)c1 + CC(=O)[O-].Cn1cc[nH+]c1, the viscosity (x2 = 0) was 93.4 mPa·s.
Molecule CC(=O)[O-].Cn1cc[nH+]c1 + COS(=O)(=O)[O-].Cn1cc[n+](C)c1 has a viscosity (x1 = 0.71) of 19.9 mPa·s, a viscosity (x1 = 0.8) of 13.6 mPa·s and a viscosity (x1 = 1) of 6.22 mPa·s.
CC(=O)[O-].Cn1cc[nH+]c1 + CC(=O)[O-].C[NH+]1CCOCC1 showed an electrical conductivity (x1 = 1) of 0.448 S/m.
CCCC[N+]1(C)CCCC1.O=S(=O)([N-]S(=O)(=O)C(F)(F)F)C(F)(F)F + CC(=O)[O-].Cn1cc[nH+]c1 gave a viscosity (x2 = 0) of 74.9 mPa·s.
CC(=O)[O-].C[NH+]1CCOCC1 + CC(=O)[O-].Cn1cc[nH+]c1 showed an electrical conductivity (x2 = 0) of 0.0229 S/m, an electrical conductivity (x2 = 0.1) of 0.0447 S/m and an electrical conductivity (x2 = 0.19) of 0.0662 S/m. For the same molecule, the electrical conductivity (x2 = 0.31) was 0.0959 S/m, the electrical conductivity (x2 = 0.4) was 0.158 S/m and the electrical conductivity (x2 = 0.5) was 0.202 S/m. It also gave an electrical conductivity (x2 = 0.59) of 0.242 S/m and an electrical conductivity (x2 = 0.8) of 0.331 S/m.
CC(=O)[O-].Cn1cc[nH+]c1 + CCCC[N+]1(C)CCCC1.O=S(=O)([N-]S(=O)(=O)C(F)(F)F)C(F)(F)F showed a viscosity (x1 = 0.1) of 59.5 mPa·s, a viscosity (x1 = 0.31) of 38.8 mPa·s and a viscosity (x1 = 0.4) of 33.3 mPa·s. It also gave a viscosity (x1 = 0.59) of 21.1 mPa·s, a viscosity (x1 = 0.71) of 15.9 mPa·s and a viscosity (x1 = 0.8) of 12.1 mPa·s.
Molecule CC(=O)[O-].Cn1cc[nH+]c1 + CCCC[n+]1ccn(C)c1.O=S(=O)([N-]S(=O)(=O)C(F)(F)F)C(F)(F)F has a viscosity (x1 = 0.1) of 42.8 mPa·s, a viscosity (x1 = 0.19) of 38.4 mPa·s and a viscosity (x1 = 0.31) of 33.5 mPa·s. It also gave a viscosity (x1 = 0.4) of 28.8 mPa·s, a viscosity (x1 = 0.5) of 24.5 mPa·s and a viscosity (x1 = 0.59) of 20.2 mPa·s. The viscosity (x1 = 0.71) was 15.5 mPa·s, the viscosity (x1 = 0.8) was 12.2 mPa·s and the viscosity (x1 = 1) was 6.22 mPa·s.
CCCC[n+]1ccn(C)c1.O=S(=O)([N-]S(=O)(=O)C(F)(F)F)C(F)(F)F + CC(=O)[O-].Cn1cc[nH+]c1 gave a viscosity (x2 = 0) of 49.3 mPa·s.
